The source of these data is patent US11339144B2 (Navitor Pharmaceuticals, Inc., priority 2017, dated 2022).

The target of one assay is Rheb (Homo sapiens (Human), UniProt Q15382). Description: Affinity Selection Mass Spectrometry (ASMS). Type of assay: binding. The settings on record: affinity (R3/R0) in Affinity Selection Mass Spectrometry assay. On the procedure: Method 2 (Affinity Selection Mass Spectrometry
Protein: Rheb (19 KDa) in the following buffer: 20 mM Tris, pH 8.0, 200 mM NaCl, 2 mM DTT, 5 mM MgCl2 was prepared as under.
Human Rheb protein (I-169) was purified from BL21 (DE3) E. coli using a His-Smt-Rheb expression vector. The cell paste was lysed in lysis buffer (50 mM HEPES pH 7.5, 0.5 M NaCl, 5% Glycerol, 1% CHAPS, EDTA free protease inhibitor tablets, lysozyme to 1 mg/mL, benzonase 250U), sonicated, and purified on a HiTrap Ni Chelating Column (GE Healthcare) using the following buffer: 50 mM HEPES pH 7.5, 0.5 M NaCl, 5% Glycerol, and imidazole increasing in concentration from 5 mM to 500 mM. The His-Smt tag was cleaved using a U1p1 enzyme and dialyzed into 50 mM HEPES pH 7.5, 0.5 M NaCl, 5% Glycerol. The resultant protein was again purified on a Ni Chelating column to remove the U1p1 enzyme and His-Smt tag and then purified by size exclusion chromatography on a Sephacryl S-100 26/60 column into the following final buffer: 20 mM NaPhos pH 7.0, 100 mM NaCl, 5 mM MgCl2, 2 mM TCEP.
Concentrations: 60 μM Rheb, 180 μM GDP and 2 μM of each compound,
Ultrafiltration Filter (Sartorius, Germany) MW cutoff: 10 KDa
• (a) Sample preparation: Prepare sample for each group in 1.5 mL microcentrifuge tube according to the experimental design, total volume 550 μL. In a standard ASMS experiment there are two groups: Protein plus (P+L+) and protein minus (P−L+). • (b) Transfer 50 μL from the 550 μL to a vial as R0 sample. Incubate the rest solution for 30 min at room temperature. Then transfer the 500 μL into an ultrafiltration filter tube and centrifuge at 12×10^3 rpm for ˜10 min, leave about 50 μL solution (otherwise adjust this time). • (c) Add incubation buffer to the ultrafiltration filter tube to about 500 μL. Stir gently and centrifuge mixtures as above, leave about 50 μL solution. • (d) Repeat the step c. Transfer the remaining 50 μL upper layer solution to a new vial as R^3 sample. Sample Extraction: Add 150 μL MeCN to denature the protein completely. Centrifuge at 12×10^3 rpm for 5 min. Transfer the supernatant into LC-MS auto sampler vials for LC-MS analysis (5 uL injection).
Waters Acquity UPLC system, Waters ACQUITY UPLC BEH C18 column (2.1×50 mm, 1.7 μM); Mobile phase A: 0.1% formic acid solution, B: MeCN; 0.3 mL/min, 5 μL injection, gradient elution (Table 5).
Waters Synapt G1 Q-TOF system, positive or negative ion scan modes; Capillary voltage: 3.0 kV; Method: MSE; Mass range: m/z=100-1000; Source temperature: 120° C.; Desolvation temperature: 400° C.; Collision voltage: 35 V; Sampling Cone: 35 V; Extraction Cone: 4.0 V; Cone Gas: 50 L/h; Desolvation Gas: 800 L/h.

In assay [1] the target is HA-GST-Rheb (GTP-γ-S loaded) activating mTORC1 (Homo sapiens (Human), UniProt Q15382). Put plainly: Rheb-dependent in vitro kinase assay (Rheb-IVK; LanthaScreen or Western readout). Type of assay: biochemical. The settings on record: Rheb-dependent in vitro kinase assay; read-out: IVK IC50. (Time-resolved FRET reads energy transfer from a long-lived donor to a nearby acceptor.)
Chain of HA-GST-Rheb (GTP-γ-S loaded) activating mTORC1 (Q15382 1-181): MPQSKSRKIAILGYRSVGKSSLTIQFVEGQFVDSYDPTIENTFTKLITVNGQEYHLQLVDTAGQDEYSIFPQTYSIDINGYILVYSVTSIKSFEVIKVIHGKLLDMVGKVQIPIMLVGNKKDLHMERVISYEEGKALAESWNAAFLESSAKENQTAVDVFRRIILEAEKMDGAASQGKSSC

Chain of Rheb (Q15382 1-169 limits assumed): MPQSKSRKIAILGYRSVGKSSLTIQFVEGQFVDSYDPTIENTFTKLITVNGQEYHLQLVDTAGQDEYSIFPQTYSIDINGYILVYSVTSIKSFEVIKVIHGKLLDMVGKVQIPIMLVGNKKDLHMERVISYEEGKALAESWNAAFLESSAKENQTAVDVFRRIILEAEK

What is called IC50 is the midpoint of a concentration-inhibition curve. As for `CN(CCO)C(=O)c1ccc(Cn2c(C(=O)O)cc3c(Br)cc(Oc4ccccc4)cc32)cc1` [I-69, 4-bromo-1-(4-((2-hydroxyethyl)(methyl)carbamoyl)benzyl)-6-phenoxy-1H-indole-2-carboxylic acid], the “ASMS (R3/R0)” value at Rheb is “C (an affinity (R3/R0)<20%)”. The IC50 in assay [1] lay in the range of 10 to 100 µM.
As for `CN(C)C(=O)c1ccc(Cn2c(C(=O)O)cc3c(Br)cc(SC4CCOCC4)cc32)cc1` [I-12, 4-bromo-1-(4-(dimethylcarbamoyl)benzyl)-6-(tetrahydro-2H-pyran-4-ylthio)-1H-indole-2-carboxylic acid], the “ASMS (R3/R0)” value on Rheb is recorded as “C (an affinity (R3/R0)<20%)”. The IC50 in assay [1] was in the range of 10 to 100 µM.
On to `Cn1ccc2c(Sc3ccc(Cl)cc3)cccc21` [I-222], for which the “ASMS (R3/R0)” value at Rheb is “B (an affinity (R3/R0) between 100% and 20%)”. Further, the IC50 in assay [1] was greater than 100 µM.
For the molecule `O=C(NCC1CCN(Cc2ccccc2)C1)c1cc2c(Sc3ccc(Cl)cc3)cc(Cl)cc2[nH]1` (stereo not drawn) [I-136], the “ASMS (R3/R0)” value at Rheb is given as “A (an affinity (R3/R0)>100%)”. In addition, in assay [1], the IC50 is greater than 100 µM.
On to `CN(C)C(=O)c1ccc(Cn2c(C(=O)O)cc3c(SCCc4ccc(Cl)c(Cl)c4)cc(SCCc4ccc(Cl)c(Cl)c4)cc32)cc1` [I-16, 4,6-bis(3,4-dichlorophenethylthio)-1-(4-(dimethylcarbamoyl)benzyl)-1H-indole-2-carboxylic acid], for which the “ASMS (R3/R0)” value on Rheb was “B (an affinity (R3/R0) between 100% and 20%)”. The IC50 in assay [1] is less than 10 µM.
As to `Clc1cccc(Oc2cccc3[nH]ccc23)c1Cl` [I-254, 4-(2,3-Dichlorophenoxy)-1H-indole], the “ASMS (R3/R0)” value at Rheb was “B (an affinity (R3/R0) between 100% and 20%)”. The IC50 in assay [1] was 10 to 100 µM.
Take `Cc1c(-c2ccc(Cn3c(C(=O)O)cc4c(Sc5ccc(Cl)cc5Cl)cc(Cl)cc43)cc2)cnn1C` [I-77, 6-chloro-4-(2,4-dichlorophenylthio)-1-(4-(1,5-dimethyl-1H-pyrazol-4-yl)benzyl)-1H-indole-2-carboxylic acid]: on Rheb, the “ASMS (R3/R0)” value is “B (an affinity (R3/R0) between 100% and 20%)”. For the same molecule, the IC50 in assay [1] was less than 10 µM.
For “7-chloro-6-(3,4-dichlorophenylthio)-4-fluoro-1H-indole-2-carboxylic acid [I-66]”, the “ASMS (R3/R0)” value on Rheb was “B (an affinity (R3/R0) between 100% and 20%)”. For the same molecule, the IC50 in assay [1] is less than 10 µM.
As for `O=C1CCC(CNC(=O)c2cc3c(Sc4ccc(Cl)cc4)cc(Cl)cc3[nH]2)N1` (stereo not drawn) [I-147], on Rheb, the “ASMS (R3/R0)” value is recorded as “A (an affinity (R3/R0)>100%)”. Also, the IC50 in assay [1] is greater than 100 µM.
As to `CN(C)C(=O)c1ccc(Cn2c(C(=O)O)cc3c(Cl)nc(Sc4ccc(Cl)c(Cl)c4)cc32)cc1` [I-4, 4-chloro-6-(3,4-dichlorophenylthio)-1-(4-(dimethylcarbamoyl)benzyl)-1H-pyrrolo[3,2-c]pyridine-2-carboxylic acid], the “ASMS (R3/R0)” value at Rheb is “B (an affinity (R3/R0) between 100% and 20%)”. Also, the IC50 in assay [1] fell in the range of 10 to 100 µM.
Take `Cn1ccc2c(Nc3ccccc3)cccc21` [I-299]: on Rheb, the “ASMS (R3/R0)” value is on record as “C (an affinity (R3/R0)<20%)”. The IC50 in assay [1] is greater than 100 µM.
`CN1CCC(CNC(=O)c2cc3c(Br)cc(Sc4ccc5ccccc5c4)cc3n2Cc2ccc(C(=O)N(C)C)cc2)CC1` [I-23]: the “ASMS (R3/R0)” value at Rheb is “B (an affinity (R3/R0) between 100% and 20%)”. The IC50 in assay [1] was greater than 100 µM.
Consider `CC(C)(C)OC(=O)N1CCN(c2cc(-c3nc4cc(Cl)c(Cl)cc4[nH]3)ccn2)CC1` [I-347], for which, on Rheb, the “ASMS (R3/R0)” value is “B (an affinity (R3/R0) between 100% and 20%)”. In assay [1], the 50% inhibitory concentration (IC50) was greater than 100 µM.
Turning to `CN1CCC[C@H]1CNC(=O)c1cc2c(Br)cc(Sc3ccc(Cl)c(Cl)c3)cc2[nH]1` [I-89], the “ASMS (R3/R0)” value at Rheb is “A (an affinity (R3/R0)>100%)”. Besides, the IC50 in assay [1] is greater than 100 µM.
`NC(=O)c1ccc(Cn2c(-c3ncco3)nc3cc(Cl)c(Cl)cc32)cc1` [I-451]: the IC50 in assay [1] is greater than 100 µM.
Regarding `CCCn1c(CO)nc2cc(OCc3ccccc3)c(Cl)cc21` [I-479], the IC50 in assay [1] is greater than 100 µM.
